In paper PMC8840742 (Molecules, 2022):

Legend:
[1] = test system: SARS-CoV-2 B.1.617.2 (Indian or Delta variant); test: microbe, parasite or virus in culture; assay type: cell-based; conditions: Severe acute respiratory syndrome coronavirus 2, Vero C1008; VeroE6 cells in presence of P-gp inhibitor
[2] = test system: SARS-CoV-2 B.1.1.7 (UK or Alpha variant); test: microbe, parasite or virus in culture; assay type: cell-based; conditions: Severe acute respiratory syndrome coronavirus 2, Vero C1008; VeroE6 cells in presence of P-gp inhibitor

c1ccc(CCN2CCC(Oc3ccccc3-c3nc(-c4ccncc4)no3)C2)cc1 (centres unmarked) [Compound 1, 5-(2-((1-Phenethylpyrrolidin-3-yl)oxy)phenyl)-3-(pyridin-4-yl)-1,2,4-oxadiazole]
EC50 [1]: 4 ± 2 µM
EC50 [2]: 3 ± 1 µM
